The source of these data is patent publication US7323433B2, “R-(-)-1-[2-(7-chlorobenzo[b]thiopen-3-yl-methoxy)-2-(2,4-dichlorophenyl)-ethyl]-1H-imidazole” (Ferrer Internacional, S.A., priority 2002, dated 2008).

Each structure is given as a SMILES string. In brackets after ≈: the same amount, converted by molar mass. Where two headings read alike, the source gives them in different places.

Format in all cases: cell-based
For one test, the system named is Malassezia spp. Nature of the test: MIC by modified NCCLS M27-A microdilution, Malassezia spp. Conditions: 11 strains, geometric mean, MIC = lowest concentration giving 50% inhibition of growth. The procedure: (§1) Minimal Inhibitory Concentrations (MICs) were determined by using a modification of the microdilution method M27-A recommended by the National Committee for Clinical Laboratory Standards in RPMI-1640 medium (Sigma) supplemented with glucose to a concentration of 2% and adjusted to pH 7.0 with 0.165 M morpholine propanesulfonic (MOPS) acid buffer. Serial twofold dilutions were made in modified RPMI-1640 medium from stock solutions. MICs were defined as the lowest drug concentrations resulting in 50% inhibition of growth compared to that of the growth control. […] The number of strains used in the experiments is given in parenthesis below the name of each microorganism.
(In general: Broth dilution looks for growth in wells or tubes with falling amounts of substance.)

The subject of a further test is Candida spp. Nature of the test: MIC by modified NCCLS M27-A microdilution, Candida spp. The following applies: 42 strains, geometric mean, MIC = lowest concentration giving 50% inhibition of growth. As for the experimental part:
as §1

For a further test, the system named is Dermatophytes. Nature of the test: MIC by modified NCCLS M27-A microdilution, Dermatophytes. Conditions: 17 strains, geometric mean, MIC = lowest concentration giving 50% inhibition of growth. As for the experimental part: as §1
Another test relates to Filamentous fungi. Nature of the test: MIC by modified NCCLS M27-A microdilution, Filamentous fungi. The following applies: 11 strains, geometric mean, MIC = lowest concentration giving 50% inhibition of growth. As for the experimental part:
as §1

Another test concerns fungi and yeasts. The test is described as follows: Microbiological activity (MIC) overall, comparison of enantiomers and racemate. As for the experimental part: as §1
Setting [1] is: RPMI-1640 2% glucose pH 7.0, read-out: MIC.

Turning to `Clc1ccc(C(Cn2ccnc2)OCc2csc3c(Cl)cccc23)c(Cl)c1` (racemic) [Racemate, 1-[2-(7-chlorobenzo[b]thiophen-3-yl-methoxy)-2-(2,4-dichlorophenyl)-ethyl]-1H-imidazole], the minimum inhibitory concentration (MIC) came out at 1.37 µg/mL (≈ 3.13 µM) in the test with Malassezia spp (setting [1]), 0.256 µg/mL (≈ 0.585 µM) in the test on Candida spp (setting [1]), 0.08 µg/mL (≈ 0.183 µM) in the test on Dermatophytes (setting [1]) and 3.11 µg/mL (≈ 7.1 µM) in the test with Filamentous fungi (setting [1]).

Consider `Clc1ccc([C@@H](Cn2ccnc2)OCc2csc3c(Cl)cccc23)c(Cl)c1.O=[N+]([O-])O` (single isomer, unassigned) [S-(+)enantiomer], for which the “microbiological activity in comparison with R-(−)sertaconazole” value with fungi and yeasts (in words, from Table 1) was “much less active”. The MIC came to 10.96 µg/mL with Malassezia spp (RPMI-1640 2% glucose pH 7.0), 3.217 µg/mL against Candida spp (RPMI-1640 2% glucose pH 7.0), 0.17 µg/mL against Dermatophytes (RPMI-1640 2% glucose pH 7.0) and 16 µg/mL against Filamentous fungi (RPMI-1640 2% glucose pH 7.0).

Consider `Clc1ccc([C@H](Cn2ccnc2)OCc2csc3c(Cl)cccc23)c(Cl)c1.O=[N+]([O-])O` [R-(−)enantiomer, (R)-(−)-1-[2-(7-chlorobenzo[b]thiophen-3-yl-methoxy)-2-(2,4-dichlorophenyl)-ethyl]-1H-imidazole mononitrate], for which, in the test on fungi and yeasts (against both fungi and yeasts, as shown in Table 1), the “activity compared with the racemic mixture” value was “about 2 times”. Moreover, the minimal inhibitory concentration (MIC) in the test on Malassezia spp (setting [1]) came out at 0.64 µg/mL; in the test on Candida spp (setting [1]), 0.125 µg/mL; with Dermatophytes (setting [1]), 0.04 µg/mL; in the test with Filamentous fungi (setting [1]) it was 1.76 µg/mL.

A word on the MIC: it is the least concentration at which growth counts as inhibited.
